Measurements reported in ChEMBL document CHEMBL1159300, “Salmahyrtisol A, a novel cytotoxic sesterterpene from the Red Sea sponge Hyrtios erecta” (J Nat Prod, 2002).

Key:
Format in all cases: functional, cell-based
A549 = assay: Cytotoxicity against human A549 cells
P388 = assay: Cytotoxicity against mouse P388 cells
HT-29 = assay: Cytotoxicity against human HT-29 cells

Measured: IC50

CC(=O)OC[C@]1(C)CCC[C@]2(C)[C@H]3C[C@@H](O)[C@]4(C)C5=C(CC[C@H]4[C@]3(C)CC[C@@H]12)COC5=O
≥ 1 µg/mL: A549 | P388 | HT-29

CC(=O)O[C@H]1CC[C@]2(C)[C@H]3C[C@@H](O)[C@]4(C)C5=C(CC[C@H]4[C@]3(C)CC[C@H]2C1(C)C)COC5=O
≥ 1 µg/mL: A549 | P388 | HT-29

CC(=O)O[C@@H]1c2occc2[C@@H](O)C[C@H]2[C@]3(C)CC[C@H]4C(C)(C)CCC[C@]4(C)[C@H]3C[C@@]21C [SALMAHYRTISOL A]
≥ 1 µg/mL: A549 | P388 | HT-29

CC1(C)CCC[C@]2(C)[C@H]3C[C@@H](O)[C@]4(C)c5cocc5C(=O)C[C@H]4[C@]3(C)CC[C@@H]12 [SALMAHYRTISOL B]
≥ 1 µg/mL: A549 | P388 | HT-29
